Results from patent US11759462B2, “Spirocyclic compounds as tryptophan hydroxylase inhibitors” (priority 2013, dated 2023).
Read-outs that look alike come from different tables or passages of the source.

Target: T1, Recombinant human TPH1 (MBP tagged) (Homo sapiens, UniProt P17752)
T1 construct: cloning full length human TPH1 cDNA in to a bacterial pMAL-c5E expression vector; made in house; host or cells: E. coli BL21 (DE3)
T1 sequence (P17752 1-444): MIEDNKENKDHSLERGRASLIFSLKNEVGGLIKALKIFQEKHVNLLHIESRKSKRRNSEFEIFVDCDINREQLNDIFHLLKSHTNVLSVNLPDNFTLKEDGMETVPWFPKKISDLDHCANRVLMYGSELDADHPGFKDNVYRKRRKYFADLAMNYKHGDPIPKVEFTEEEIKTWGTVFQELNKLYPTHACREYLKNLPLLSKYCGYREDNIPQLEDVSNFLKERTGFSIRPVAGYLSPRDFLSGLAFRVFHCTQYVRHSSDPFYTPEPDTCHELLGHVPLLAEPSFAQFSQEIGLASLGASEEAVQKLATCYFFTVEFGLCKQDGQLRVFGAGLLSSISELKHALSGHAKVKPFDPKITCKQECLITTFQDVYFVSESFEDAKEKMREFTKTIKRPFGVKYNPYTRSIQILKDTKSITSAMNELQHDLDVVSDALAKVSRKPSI
Experiment: TPH1 in vitro inhibition assay (kinetic fluorescence)
Format: biochemical
How it was run: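 Final mix: 15 nM MBP-TPH1, 30 μM Trp, 36 μM 6-methyltetrahydropterin, 25 μM ferrous ammonium sulfate, 50 mM MES pH 7.1, 1% DMSO, room temperature.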

[1] = read-out: TPH1 Range (TPH1 inhibition IC50)
[2] = TPH1 Range (TPH1 inhibition IC50)

Structure (SMILES) | IC50 [1] | IC50 [2]
Cc1cc(Cl)cc(-c2cc(Cl)ccc2[C@@H](Oc2cc(N3CCC4(CC3)CN[C@H](C(=O)O)C4)nc(N)n2)C(F)(F)F)c1 [Example 34be, (S)-8-(2-amino-6-((R)-1-(3′,5-dichloro-5′-methyl-[1,1′-biphenyl]-2-yl)-2,2,2-trifluoroethoxy)pyrimidin-4-yl)-2,8-diazaspiro[4.5]decane-3-carboxylic acid] | < 50 nM | –
Nc1nc(O[C@H](c2ccc(Cl)cc2-c2cc(F)c(F)c(F)c2)C(F)(F)F)cc(N2CCC3(CC2)CN[C@H](C(=O)O)C3)n1 [Example 34bf, (S)-8-(2-amino-6-((R)-1-(5-chloro-3′,4′,5′-trifluoro-[1,1′-biphenyl]-2-yl)-2,2,2-trifluoroethoxy)pyrimidin-4-yl)-2,8-diazaspiro[4.5]decane-3-carboxylic acid] | 50 to 300 nM | –
Nc1nc(O[C@H](c2ccc(Cl)cc2-c2cccc(OC(F)(F)F)c2)C(F)(F)F)cc(N2CCC3(CC2)CN[C@H](C(=O)O)C3)n1 [Example 34bg, (S)-8-(2-amino-6-((R)-1-(5-chloro-3′-(trifluoromethoxy)-[1,1′-biphenyl]-2-yl)-2,2,2-trifluoroethoxy)pyrimidin-4-yl)-2,8-diazaspiro[4.5]decane-3-carboxylic acid] | 50 to 300 nM | –
Nc1nc(O[C@H](c2ccc(Cl)cc2-c2cc(C(F)(F)F)cc(C(F)(F)F)c2)C(F)(F)F)cc(N2CCC3(CC2)CN[C@H](C(=O)O)C3)n1 [Example 34bh, (S)-8-(2-amino-6-((R)-1-(5-chloro-3′,5′-bis(trifluoromethyl)-[1,1′-biphenyl]-2-yl)-2,2,2-trifluoroethoxy)pyrimidin-4-yl)-2,8-diazaspiro[4.5]decane-3-carboxylic acid] | 300 to 3000 nM | –
CC(C)c1cccc(-c2cc(Cl)ccc2[C@@H](Oc2cc(N3CCC4(CC3)CN[C@H](C(=O)O)C4)nc(N)n2)C(F)(F)F)c1 [Example 34bi, (S)-8-(2-amino-6-((R)-1-(5-chloro-3′-isopropyl-[1,1′-biphenyl]-2-yl)-2,2,2-trifluoroethoxy)pyrimidin-4-yl)-2,8-diazaspiro[4.5]decane-3-carboxylic acid] | < 50 nM | –
Nc1nc(O[C@H](c2ccc(Cl)cc2-c2cc(Cl)cc(Cl)c2)C(F)(F)F)cc(N2CCC3(CC2)CN[C@H](C(=O)O)C3)n1 [Example 34bj, (S)-8-(2-amino-6-((R)-2,2,2-trifluoro-1-(3′,5,5′-trichloro-[1,1′-biphenyl]-2-yl)ethoxy)pyrimidin-4-yl)-2,8-diazaspiro[4.5]decane-3-carboxylic acid] | < 50 nM | –
Nc1nc(O[C@H](c2ccc(Cl)cc2-c2ccc(F)c(C(F)(F)F)c2)C(F)(F)F)cc(N2CCC3(CC2)CN[C@H](C(=O)O)C3)n1 [Example 34bk, (S)-8-(2-amino-6-((R)-1-(5-chloro-4′-fluoro-3′-(trifluoromethyl)-[1,1′-biphenyl]-2-yl)-2,2,2-trifluoroethoxy)pyrimidin-4-yl)-2,8-diazaspiro[4.5]decane-3-carboxylic acid] | 50 to 300 nM | –
CC(C)Oc1cc(F)cc(-c2cc(Cl)ccc2[C@@H](Oc2cc(N3CCC4(CC3)CN[C@H](C(=O)O)C4)nc(N)n2)C(F)(F)F)c1 [Example 34bl, (S)-8-(2-amino-6-((R)-1-(5-chloro-3′-fluoro-5′-isopropoxy-[1,1′-biphenyl]-2-yl)-2,2,2-trifluoroethoxy)pyrimidin-4-yl)-2,8-diazaspiro[4.5]decane-3-carboxylic acid] | 50 to 300 nM | –
Cc1cc(-c2cc(Cl)ccc2[C@@H](Oc2cc(N3CCC4(CC3)CN[C@H](C(=O)O)C4)nc(N)n2)C(F)(F)F)cc(C(C)(C)C)c1 [Example 34bm, (S)-8-(2-amino-6-((R)-1-(3′-(tert-butyl)-5-chloro-5′-methyl-[1,1′-biphenyl]-2-yl)-2,2,2-trifluoroethoxy)pyrimidin-4-yl)-2,8-diazaspiro[4.5]decane-3-carboxylic acid] | 50 to 300 nM | –
Nc1nc(O[C@H](c2ccc(Cl)cc2-c2ccccc2)C(F)(F)F)cc(N2CCC3(CC2)CN[C@H](C(=O)O)C3)n1 [Example 34c, (S)-8-(2-amino-6-((R)-1-(5-chloro-[1,1′-biphenyl]-2-yl)-2,2,2-trifluoroethoxy)pyrimidin-4-yl)-2,8-diazaspiro[4.5]decane-3-carboxylic acid] | – | 50 to 300 nM
Nc1nc(O[C@H](c2ccc(Cl)cc2-c2cccc(C(=O)NC3CCC(O)CC3)c2)C(F)(F)F)cc(N2CCC3(CC2)CN[C@H](C(=O)O)C3)n1 (stereo partly drawn) [Example 34cc, (S)-8-(2-amino-6-((R)-1-(5-chloro-3′-(((1R,4R)-4-hydroxycyclohexyl)carbamoyl)-[1,1′-biphenyl]-2-yl)-2,2,2-trifluoroethoxy)pyrimidin-4-yl)-2,8-diazaspiro[4.5]decane-3-carboxylic acid] | 50 to 300 nM | –

More lines, now with the values ahead:

IC50 [1] | IC50 [2] | Structure (SMILES)
50 to 300 nM | – | Cc1ccc(-c2cc(Cl)ccc2[C@@H](Oc2cc(N3CCC4(CC3)CN[C@H](C(=O)O)C4)nc(N)n2)C(F)(F)F)cc1F [Example 34bn, (S)-8-(2-amino-6-((R)-1-(5-chloro-3′-fluoro-4′-methyl-[1,1′-biphenyl]-2-yl)-2,2,2-trifluoroethoxy)pyrimidin-4-yl)-2,8-diazaspiro[4.5]decane-3-carboxylic acid]
– | 50 to 300 nM | Nc1nc(O[C@H](c2ccc(Cl)cc2-c2cccnc2)C(F)(F)F)cc(N2CCC3(CC2)CN[C@H](C(=O)O)C3)n1 [Example 34bo, (S)-8-(2-amino-6-((R)-1-(4-chloro-2-(pyridin-3-yl)phenyl)-2,2,2-trifluoroethoxy)pyrimidin-4-yl)-2,8-diazaspiro[4.5]decane-3-carboxylic acid]
< 50 nM | – | CCOc1cc(-c2cc(Cl)ccc2[C@@H](Oc2cc(N3CCC4(CC3)CN[C@H](C(=O)O)C4)nc(N)n2)C(F)(F)F)ccc1F [Example 34bp, (S)-8-(2-amino-6-((R)-1-(5-chloro-3′-ethoxy-4′-fluoro-[1,1′-biphenyl]-2-yl)-2,2,2-trifluoroethoxy)pyrimidin-4-yl)-2,8-diazaspiro[4.5]decane-3-carboxylic acid]
– | 50 to 300 nM | CC(C)(C)c1cccc(-c2cc(Cl)ccc2[C@@H](Oc2cc(N3CCC4(CC3)CN[C@H](C(=O)O)C4)nc(N)n2)C(F)(F)F)c1 [Example 34bq, (S)-8-(2-amino-6-((R)-1-(3′-(tert-butyl)-5-chloro-[1,1′-biphenyl]-2-yl)-2,2,2-trifluoroethoxy)pyrimidin-4-yl)-2,8-diazaspiro[4.5]decane-3-carboxylic acid]
50 to 300 nM | – | CC(C)c1cc(-c2cc(Cl)ccc2[C@@H](Oc2cc(N3CCC4(CC3)CN[C@H](C(=O)O)C4)nc(N)n2)C(F)(F)F)ccn1 [Example 34bu, (S)-8-(2-amino-6-((R)-1-(4-chloro-2-(2-isopropylpyridin-4-yl)phenyl)-2,2,2-trifluoroethoxy)pyrimidin-4-yl)-2,8-diazaspiro[4.5]decane-3-carboxylic acid]
50 to 300 nM | – | Nc1nc(O[C@H](c2ccc(Cl)cc2-c2ccc(F)cc2)C(F)(F)F)cc(N2CCC3(CC2)CN[C@H](C(=O)O)C3)n1 [Example 34bv, (S)-8-(2-amino-6-((R)-1-(5-chloro-4′-fluoro-[1,1′-biphenyl]-2-yl)-2,2,2-trifluoroethoxy)pyrimidin-4-yl)-2,8-diazaspiro[4.5]decane-3-carboxylic acid]
– | 50 to 300 nM | Nc1nc(O[C@H](c2ccc(Cl)cc2-c2ccc(Cl)cc2)C(F)(F)F)cc(N2CCC3(CC2)CN[C@H](C(=O)O)C3)n1 [Example 34bw, (S)-8-(2-amino-6-((R)-1-(4′,5-dichloro-[1,1′-biphenyl]-2-yl)-2,2,2-trifluoroethoxy)pyrimidin-4-yl)-2,8-diazaspiro[4.5]decane-3-carboxylic acid]
50 to 300 nM | – | Cc1ccc(-c2cc(Cl)ccc2[C@@H](Oc2cc(N3CCC4(CC3)CN[C@H](C(=O)O)C4)nc(N)n2)C(F)(F)F)cc1 [Example 34bx, (S)-8-(2-amino-6-((R)-1-(5-chloro-4′-methyl-[1,1′-biphenyl]-2-yl)-2,2,2-trifluoroethoxy)pyrimidin-4-yl)-2,8-diazaspiro[4.5]decane-3-carboxylic acid]
50 to 300 nM | – | Nc1nc(O[C@H](c2ccc(Cl)cc2C2=CCCCC2)C(F)(F)F)cc(N2CCC3(CC2)CN[C@H](C(=O)O)C3)n1 [Example 34by, (S)-8-(2-amino-6-((R)-1-(5-chloro-2′,3′,4′,5′-tetrahydro-[1,1′-biphenyl]-2-yl)-2,2,2-trifluoroethoxy)pyrimidin-4-yl)-2,8-diazaspiro[4.5]decane-3-carboxylic acid]
50 to 300 nM | – | Nc1nc(O[C@H](c2ccc(Cl)cc2-c2cccc(C(=O)N3CCCC3)c2)C(F)(F)F)cc(N2CCC3(CC2)CN[C@H](C(=O)O)C3)n1 [Example 34ca, (S)-8-(2-amino-6-((R)-1-(5-chloro-3′-(pyrrolidine-1-carbonyl)-[1,1′-biphenyl]-2-yl)-2,2,2-trifluoroethoxy)pyrimidin-4-yl)-2,8-diazaspiro[4.5]decane-3-carboxylic acid]
50 to 300 nM | – | Nc1nc(O[C@H](c2ccc(Cl)cc2-c2cccc(OC3CCCC3)c2)C(F)(F)F)cc(N2CCC3(CC2)CN[C@H](C(=O)O)C3)n1 [Example 34cb, (S)-8-(2-amino-6-((R)-1-(5-chloro-3′-(cyclopentyloxy)-[1,1′-biphenyl]-2-yl)-2,2,2-trifluoroethoxy)pyrimidin-4-yl)-2,8-diazaspiro[4.5]decane-3-carboxylic acid]
